Results reported in patent publication US20250049809A1, “INHIBITORS OF MUTANT IDH1 AND IDH2” (Board of Regents, The University of Texas System, priority 2023, published 2025).
Read-outs that look alike come from different tables or passages of the source.

Columns and labels:
mIDH1R132H/S280F = mIDH1R132H/S280F (Homo sapiens (Human), UniProt O75874, R132H/S280F); assay: mIDH1 R132H/S280F enzymatic activity assay (NADPH fluorescence); format: biochemical; conditions: enzyme assay, 1 hour preincubation; read-out: IDH1R132H/S280F IC50
Sequence of mIDH1R132H/S280F (O75874 whole entry R132H/S280F): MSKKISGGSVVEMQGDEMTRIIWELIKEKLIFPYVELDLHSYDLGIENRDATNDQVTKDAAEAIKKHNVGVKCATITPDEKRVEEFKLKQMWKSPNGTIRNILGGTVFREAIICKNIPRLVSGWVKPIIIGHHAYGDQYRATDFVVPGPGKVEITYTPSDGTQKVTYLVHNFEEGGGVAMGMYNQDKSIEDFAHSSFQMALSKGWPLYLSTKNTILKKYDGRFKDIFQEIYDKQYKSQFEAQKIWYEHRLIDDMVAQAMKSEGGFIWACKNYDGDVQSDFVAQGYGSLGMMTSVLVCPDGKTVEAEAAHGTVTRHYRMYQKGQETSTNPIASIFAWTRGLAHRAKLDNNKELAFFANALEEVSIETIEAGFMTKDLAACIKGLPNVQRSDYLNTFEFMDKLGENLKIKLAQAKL
Description: (§1) The enzymatic activity of mIDH1R132H/S280F was assessed by measuring the fluorescence of the NADPH. The assay was performed in 384 well, white ProxiPlates (PerkinElmer, 6008280) in assay buffer containing 50 mM Hepes (Life Technologies, 15630080), 50 mM KCl (Teknova, P0327), 10 mM MgCl2 (Sigma-Aldrich, M1028), 1 mM DTT (Sigma-Aldrich, 43815), 0.02% BSA (Sigma-Aldrich, A3059) at pH 7.5. The final reaction volume was 10 μL. Stock solutions of the test compounds were prepared in 100% DMSO (Sigma, D2650) and serially diluted 1:3 using 100% DMSO. 50 nL of compound were then transferred to the assay plate using the Beckman Coulter ECHO 650 Acoustic Liquid Handler for a final DMSO concentration of 0.5%. 5 μL of a mIDH1R132H/S280F and NADPH (Santa Cruz, SC202725C) mixture were added to the assay plate for a final concentration of 2 nM and 10 PM, respectively. 5 μL of NADPH alone were added to negative control wells followed by a 1 hour preincubation at room temperature. 5 μL of alphaketoglutarate (Sigma-Aldrich, K1128) were added to the assay plate for a final concentration of 120 μM. Fluorescence of NADPH (excitation: 350 nm, emission 450 nm) was immediately measured kinetically for approximately 90 minutes using the BioTek Synergy Neo plate reader.

mIDH2R140Q = mIDH2R140Q (Homo sapiens (Human), UniProt P48735, R140Q); assay: mIDH2 R140Q enzymatic activity assay (NADPH fluorescence); format: biochemical; conditions: enzyme assay, 1 hour preincubation; read-out: IDH2R140Q IC50
Sequence of mIDH2R140Q (P48735 40-452 R140Q): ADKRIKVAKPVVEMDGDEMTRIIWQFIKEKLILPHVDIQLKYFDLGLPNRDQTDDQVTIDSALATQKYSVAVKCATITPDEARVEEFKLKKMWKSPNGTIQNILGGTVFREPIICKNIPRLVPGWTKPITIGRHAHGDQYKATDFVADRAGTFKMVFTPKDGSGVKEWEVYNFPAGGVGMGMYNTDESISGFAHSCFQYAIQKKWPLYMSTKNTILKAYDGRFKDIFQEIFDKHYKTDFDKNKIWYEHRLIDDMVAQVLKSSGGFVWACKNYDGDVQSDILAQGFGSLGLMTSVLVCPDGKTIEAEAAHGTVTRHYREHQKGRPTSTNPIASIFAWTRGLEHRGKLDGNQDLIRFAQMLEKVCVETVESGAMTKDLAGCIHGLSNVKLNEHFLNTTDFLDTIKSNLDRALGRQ
Description: as §1, with “of mIDH2R140Q” for “of mIDH1R132H/S280F”, “a mIDH2R140Q” for “a mIDH1R132H/S280F”, “of 3” for “of 2”, “10 μM,” for “10 PM,”, “of 300” for “of 120”, “approximately 150” for “approximately 90”

U87 IDH1R132H = U87 IDH1R132H (Homo sapiens (Human), UniProt O75874, R132H); assay: U87 IDH1 R132H 2-HG cellular assay; format: cell-based; conditions: extracellular 2HG, 24 h treatment, IDH1 mutant-U-87 isogenic cell line
Sequence of U87 IDH1R132H (O75874 whole entry R132H): as the sequence (O75874 whole entry R132H/S280F) above, with F280S counted along it
Description: The IDH1 mutant-U-87 isogenic cell line (ATCC HTB-14IG) used to test cellular inhibition is a glioma IDH1R132H mutant isogenic line derived from the parental U-87MG cell line. These cells are maintained in EMEM (ATCC 30-2003) culture media with 10% FBS and 10 U/mL Penicillin-Streptomycin. Twelve thousand cells are plated in polystyrene 384 well cell culture plates (Greiner Bio-One 781091) (12,000 cells/well) approximately 18 hours before compound treatment. Immediately before treatment, the cells are washed twice with PBS, followed by culture media replenishing. Cells are then treated with different concentrations of test compounds (5 μM to 0.3 pM) for 24 h. Extracellular 2HG levels are measured from cell culture media. For analyte extraction, 30 μL of culture media is transferred to 120 uL 100% acetonitrile in a deep 384 well plate and mixed well, followed by 5 min centrifugation at 3700 rpm at room temperature. 100 μL of supernatant is transferred to a flat bottom 384 well plate. Samples are run on the Agilent RapidFire-Mass Spectrometry instrument to detect 2HG levels. The samples from each well were aspirated for 600 ms and loaded onto a HILIC solid-phase extraction cartridge (Agilent) followed by a wash step for 3000 ms with 90% acetonitrile containing 5 mM ammonium acetate. Analytes were then eluted off the cartridge into the Agilent 6460 Triple Quad mass spectrometer with a 4500 ms elution step using 30% acetonitrile containing 5 mM ammonium acetate. The HILIC cartridge was then re-equilibrated by 90% acetonitrile containing 5 mM ammonium acetate for 500 ms. The 2HG was detected by an Agilent 6460 Triple Quad mass spectrometer in negative ion mode. Multiple reaction monitoring was used to quantify 2HG using the precursor ion and product ion at m/z 147.03 and 128.9, respectively. The percent activity of each sample is calculated by using DMSO and control compound treated references, and IC50 values are obtained using the GeneData Screener data analysis program.

TF1 IDH2R140Q = TF1 IDH2R140Q (Homo sapiens (Human), UniProt P48735, R140Q); assay: TF1 IDH2 R140Q 2-HG cellular assay; format: cell-based; conditions: extracellular 2HG, 24 hr treatment, IDH2 mutant-TF1 isogenic cell line
Sequence of TF1 IDH2R140Q (P48735 40-452 R140Q): as the sequence (P48735 40-452 R140Q) above
Description: The IDH2 mutant-TF1 isogenic cell line (ATCC CRL-20031G) used to test cellular inhibition is an erythroblast cell line that was isolated from the marrow of a patient with erythroleukemia with the IDH2R140Q mutation. These cells are maintained in RPMI-1640 (ATCC 30-2001) culture media with 10% FBS, 10 U/mL Penicillin-Streptomycin, and 2 ng/mL GM-CSF. Thirty thousand cells are plated in polystyrene tissue culture treated 384 well cell culture plates (PerkinElmer 6007680) (30,000 cells/well) approximately 2 hours before compound treatment. Cells are then treated with different concentrations of test compounds (5 μM to 0.3 pM) for 24 hr. Extracellular 2HG levels are measured from cell culture media. For analyte extraction, 30 μL of culture media is transferred to 120 μL 100% acetonitrile in a deep 384 well plate and mixed well, followed by 5 min centrifugation at 3700 rpm at room temperature. 100 μL of supernatant is transferred to a flat bottom 384 well plate. Samples are run on the Agilent RapidFire-Mass Spectrometry instrument to detect 2HG levels. The samples from each well were aspirated for 600 ms and loaded onto a HILIC solid-phase extraction cartridge (Agilent) followed by a wash step for 3000 ms with 90% acetonitrile containing 5 mM ammonium acetate. Analytes were then eluted off the cartridge into the Agilent 6460 Triple Quad mass spectrometer with a 4500 ms elution step using 30% acetonitrile containing 5 mM ammonium acetate. The HILIC cartridge was then re-equilibrated by 90% acetonitrile containing 5 mM ammonium acetate for 500 ms. The 2HG was detected by an Agilent 6460 Triple Quad mass spectrometer in negative ion mode. Multiple reaction monitoring was used to quantify 2HG using the precursor ion and product ion at m/z 147.03 and 128.9, respectively. The percent activity of each sample is calculated by using DMSO and control compound treated references, and IC50 values are obtained using the GeneData Screener data analysis program.

[1] = rcm bond
[2] = rcm bond, DCE, 60.0 °C

**Q.** Which IC50 (mIDH1R132H/S280F) does the source give for `C=CC(=O)N1CCN(C2CC/C=C\CCCCN3C(=O)OCc4cnc(nc43)N[C@@H](C)c3ccc2cc3)CC1` (stereo partly drawn) [Example 2, (3S,Z)-5-(4-acryloylpiperazin-1-yl)-3-methyl-1^1,1^4-dihydro-1^2H-2-aza-1(7,1)-pyrimido[4,5-d][1,3]oxazina-4(1,4)-benzenacyclotridecaphan-8-en-1^2-one] here?
**A.** The IC50 was 284 nM.

**Q.** And the IC50 (mIDH2R140Q)?
**A.** The IC50 was 1840 nM.

**Q.** And the IC50 (U87 IDH1R132H)?
**A.** Its IC50 is 0.31 nM.

**Q.** What about the IC50 (TF1 IDH2R140Q) of the same compound?
**A.** The IC50 was 342 nM.

**Q.** For `C=CC(=O)N1CCN(C2CCC/C=C/CN3C(=O)OCc4cnc(nc43)N[C@@H](C)c3ccc2cc3)CC1` (stereo partly drawn) [Example 6, (3S,Z)-5-(4-acryloylpiperazin-1-yl)-3-methyl-1^1,1^4-dihydro-1^2H-2-aza-1(7,1)-pyrimido[4,5-d][1,3]oxazina-4(1,4)-benzenacycloundecaphan-9-en-1^2-one], which IC50 (U87 IDH1R132H) is on record?
**A.** The IC50 was 0.26 nM.

**Q.** And the IC50 (TF1 IDH2R140Q)?
**A.** The IC50 was 1720 nM.

**Q.** What does the source list for `C=CC(=O)N1CCN(C2CCCCCCCCN3C(=O)OCc4cnc(nc43)N[C@@H](C)c3ccc2cc3)CC1` (stereo partly drawn) [Example 1, (3S)-5-(4-acryloylpiperazin-1-yl)-3-methyl-1^1,1^4-dihydro-1^2H-2-aza-1(7,1)-pyrimido[4,5-d][1,3]oxazina-4(1,4)-benzenacyclotridecaphan-1^2-one]?
**A.** IC50 (mIDH1R132H/S280F): 103 nM; IC50 (mIDH2R140Q): 1320 nM; IC50 (U87 IDH1R132H): 0.32 nM; IC50 (TF1 IDH2R140Q): 269 nM

**Q.** Which IC50 (mIDH1R132H/S280F) does the source give for `C=CC(=O)N1CCN(C2CCCCCC[C@H](C)N3C(=O)OCc4cnc(nc43)N[C@@H](C)c3ccc2cc3)CC1` (stereo partly drawn) [Example 9, (3S,12S)-5-(4-acryloylpiperazin-1-yl)-3,12-dimethyl-1^1,1^4-dihydro-1^2H-2-aza-1(7,1)-pyrimido[4,5-d][1,3]oxazina-4(1,4)-benzenacyclododecaphan-1^2-one] here?
**A.** Its IC50 is 94 nM.

**Q.** And the IC50 (mIDH2R140Q)?
**A.** Its IC50 is 1490 nM.

**Q.** And the IC50 (U87 IDH1R132H)?
**A.** The IC50 was 0.14 nM.

**Q.** What about the IC50 (TF1 IDH2R140Q) of the same compound?
**A.** The IC50 was 504 nM.

**Q.** For `C[C@@H]1Nc2ncc3c(n2)N(CC=CCCCCC(=O)c2ccc1cc2)C(=O)OC3`, which ring closure, isolated yield ([1]; from C=CCCCCC(=O)c1ccc([C@H](C)Nc2ncc3c(n2)N(CC=C)C(=O)OC3)cc1, 18-membered ring, Grubbs II (0.1 eq), DCM, 2.6 mM, 45.0 °C, 48.0 h) is on record?
**A.** The ring closure, isolated yield was 36.5%.

**Q.** With `C[C@@H]1Nc2ncc3c(n2)N(CC=CCCCC(=O)c2ccc1cc2)C(=O)OC3` as the compound, how does the ring closure, isolated yield ([1]; from C=CCCCC(=O)c1ccc([C@H](C)Nc2ncc3c(n2)N(CC=C)C(=O)OC3)cc1, 17-membered ring, Grubbs II (2 portions), DCM, 2.04 mM, 40.0 °C, 84.0 h) read?
**A.** Its ring closure, isolated yield is 52%.

**Q.** For `C=CC(=O)N1CCN(C2CCCCCCN3C(=O)OCc4cnc(nc43)N[C@@H](C)c3ccc2cc3)CC1` (single isomer, unassigned) [Example 7], which IC50 (mIDH1R132H/S280F) is on record?
**A.** The IC50 was 295 nM.

**Q.** And the IC50 (mIDH2R140Q)?
**A.** Its IC50 is 1730 nM.

**Q.** And the IC50 (U87 IDH1R132H)?
**A.** The IC50 was 0.24 nM.

**Q.** And the IC50 (TF1 IDH2R140Q)?
**A.** The IC50 was 123 nM.

**Q.** With `C=CC(=O)N1CCN(C2COCCCC[C@H](C)N3C(=O)OCc4cnc(nc43)N[C@@H](C)c3ccc2cc3)CC1` (stereo partly drawn) [Example 10, (3S,12S)-5-(4-acryloylpiperazin-1-yl)-3,12-dimethyl-1^1,1^4-dihydro-1^2H-7-oxa-2-aza-1(7,1)-pyrimido[4,5-d][1,3]oxazina-4(1,4)-benzenacyclododecaphan-1^2-one] as the compound, how does the IC50 (mIDH1R132H/S280F) read?
**A.** Its IC50 is 83 nM.

**Q.** And the IC50 (mIDH2R140Q)?
**A.** The IC50 was 4990 nM.

**Q.** What about the IC50 (U87 IDH1R132H) of the same compound?
**A.** Its IC50 is 0.31 nM.

**Q.** What about the IC50 (TF1 IDH2R140Q) of the same compound?
**A.** Its IC50 is 1220 nM.

**Q.** With `C[C@@H]1Nc2ncc3c(n2)N(CCCCC=CCCC(N2CCN(C(=O)OC(C)(C)C)CC2)c2ccc1cc2)C(=O)OC3` (stereo partly drawn) as the compound, how does the ring closure, isolated yield ([1]; from C=CCCCCN1C(=O)OCc2cnc(N[C@@H](C)c3ccc(C(CCC=C)N4CCN(C(=O)OC(C)(C)C)CC4)cc3)nc21, 19-membered ring, Hoveyda-Grubbs II (0.21 eq), DCE, 16.6 mM, 60.0 °C, 9.0 h) read?
**A.** Its ring closure, isolated yield is 49.2%.

**Q.** Which IC50 (mIDH1R132H/S280F) does the source give for `C=CC(=O)N1CCN(C2CCCCCCN3C(=O)OCc4cnc(nc43)N[C@@H](C)c3ccc2cc3)CC1` (single isomer, unassigned) [Example 8] here?
**A.** The IC50 was 922 nM.

**Q.** And the IC50 (mIDH2R140Q)?
**A.** The IC50 was 4730 nM.

**Q.** What about the IC50 (U87 IDH1R132H) of the same compound?
**A.** The IC50 was 0.19 nM.

**Q.** What about the IC50 (TF1 IDH2R140Q) of the same compound?
**A.** The IC50 was 351 nM.

**Q.** For `C[C@@H]1Nc2ncc3c(n2)N(CC=CCCCC(N2CCN(C(=O)OC(C)(C)C)CC2)c2ccc1cc2)C(=O)OC3` (stereo partly drawn), which ring closure, yield after HPLC ([2]; from C=CCCCC(c1ccc([C@H](C)Nc2ncc3c(n2)N(CC=C)C(=O)OC3)cc1)N1CCN(C(=O)OC(C)(C)C)CC1, 17-membered ring, Hoveyda-Grubbs II (2 x 0.1 eq), 8.67 mM, 15.0 h) is on record?
**A.** The ring closure, yield after HPLC was 21%.

**Q.** What does the source list for `C=CC(=O)N1CCN(C2CCCC/C=C/CCN3C(=O)OCc4cnc(nc43)N[C@@H](C)c3ccc2cc3)CC1` (stereo partly drawn) [Example 5, (3S,E)-5-(4-acryloylpiperazin-1-yl)-3-methyl-1^1,1^4-dihydro-1^2H-2-aza-1(7,1)-pyrimido[4,5-d][1,3]oxazina-4(1,4)-benzenacyclotridecaphan-10-en-12-one]?
**A.** IC50 (U87 IDH1R132H): 0.1 nM; IC50 (TF1 IDH2R140Q): 215 nM

**Q.** For `C[C@@H]1Nc2ncc3c(n2)N(C(=O)OC3)[C@@H](C)CC=CCOCC(N2CCN(C(=O)OC(C)(C)C)CC2)c2ccc1cc2` (stereo partly drawn), which ring closure, yield after HPLC ([2]; from C=CCOCC(c1ccc([C@H](C)Nc2ncc3c(n2)N([C@@H](C)CC=C)C(=O)OC3)cc1)N1CCN(C(=O)OC(C)(C)C)CC1, 18-membered ring, Hoveyda-Grubbs II (0.1 eq), 8.24 mM, 9.0 h) is on record?
**A.** Its ring closure, yield after HPLC is 27.6%.
